≈ marks a conversion by molar mass, not a printed value.
Columns and labels:
Staphylococcus aureus = experiment: Antibacterial activity against Staphylococcus aureus ATCC 29213; format: functional
[1] = tested on: Staphylococcus epidermidis; experiment: Antibacterial activity against Staphylococcus epidermidis ATCC 12228; format: functional
Streptococcus pyogenes = experiment: Antibacterial activity against Streptococcus pyogenes ATCC 19615; format: functional
Enterococcus faecalis = experiment: Antibacterial activity against Enterococcus faecalis ATCC 29212; format: functional
Enterococcus faecium = experiment: Antibacterial activity against Enterococcus faecium ATCC 19434; format: functional
Haemophilus influenzae = experiment: Antibacterial activity against Haemophilus influenzae ATCC 49766; format: functional
Citrobacter freundii = experiment: Antibacterial activity against Citrobacter freundii ATCC 8090; format: functional
Escherichia coli = experiment: Antibacterial activity against Escherichia coli ATCC 25922; format: functional
Cutibacterium acnes = experiment: Antibacterial activity against Propionibacterium acnes ATCC 11827; format: functional
Bacteroides fragilis = experiment: Antibacterial activity against Bacteroides fragilis ATCC 25285; format: functional
Candida albicans = experiment: Antifungal activity against Candida albicans ATCC 90028; format: functional
Peptide deformylase = molecular target: T1, Peptide deformylase (Escherichia coli, UniProt Q9JN24); experiment: Inhibition of Escherichia coli peptide deformylase after 1 hr by fluorescence polarization based competition assay
T1 sequence (Q9JN24 whole entry): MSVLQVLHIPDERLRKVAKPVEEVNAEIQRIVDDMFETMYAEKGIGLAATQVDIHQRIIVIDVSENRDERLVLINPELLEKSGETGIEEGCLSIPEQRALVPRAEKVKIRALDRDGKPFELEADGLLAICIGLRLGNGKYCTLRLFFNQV

[2] = molecular target: T2, Peptide deformylase, mitochondrial (Homo sapiens) (UniProt Q9HBH1); experiment: Inhibition of human peptide deformylase at 100 uM after 1 hr by fluorescence polarization based competition assay
T2 sequence (whole entry): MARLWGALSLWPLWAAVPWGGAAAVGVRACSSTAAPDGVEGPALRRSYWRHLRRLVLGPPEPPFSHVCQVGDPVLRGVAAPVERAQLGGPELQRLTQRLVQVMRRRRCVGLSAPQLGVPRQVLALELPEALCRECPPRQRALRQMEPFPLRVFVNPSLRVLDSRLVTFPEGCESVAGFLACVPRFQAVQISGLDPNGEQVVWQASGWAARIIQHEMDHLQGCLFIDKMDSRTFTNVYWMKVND

[3] = molecular target: T3, Peptide deformylase (Escherichia coli) (UniProt Q9JN24); experiment: Inhibition of Escherichia coli peptide deformylase at 100 uM after 1 hr by fluorescence polarization based competition assay
T3 sequence (whole entry): T1 sequence (Q9JN24 whole entry)

[4] = molecular target: T4, Aminopeptidase N (Sus scrofa) (UniProt P15145); experiment: Inhibition of porcine kidney microsomal aminopeptidase N at 100 uM after 1 hr by fluorescence polarization based competition assay
T4 sequence (whole entry): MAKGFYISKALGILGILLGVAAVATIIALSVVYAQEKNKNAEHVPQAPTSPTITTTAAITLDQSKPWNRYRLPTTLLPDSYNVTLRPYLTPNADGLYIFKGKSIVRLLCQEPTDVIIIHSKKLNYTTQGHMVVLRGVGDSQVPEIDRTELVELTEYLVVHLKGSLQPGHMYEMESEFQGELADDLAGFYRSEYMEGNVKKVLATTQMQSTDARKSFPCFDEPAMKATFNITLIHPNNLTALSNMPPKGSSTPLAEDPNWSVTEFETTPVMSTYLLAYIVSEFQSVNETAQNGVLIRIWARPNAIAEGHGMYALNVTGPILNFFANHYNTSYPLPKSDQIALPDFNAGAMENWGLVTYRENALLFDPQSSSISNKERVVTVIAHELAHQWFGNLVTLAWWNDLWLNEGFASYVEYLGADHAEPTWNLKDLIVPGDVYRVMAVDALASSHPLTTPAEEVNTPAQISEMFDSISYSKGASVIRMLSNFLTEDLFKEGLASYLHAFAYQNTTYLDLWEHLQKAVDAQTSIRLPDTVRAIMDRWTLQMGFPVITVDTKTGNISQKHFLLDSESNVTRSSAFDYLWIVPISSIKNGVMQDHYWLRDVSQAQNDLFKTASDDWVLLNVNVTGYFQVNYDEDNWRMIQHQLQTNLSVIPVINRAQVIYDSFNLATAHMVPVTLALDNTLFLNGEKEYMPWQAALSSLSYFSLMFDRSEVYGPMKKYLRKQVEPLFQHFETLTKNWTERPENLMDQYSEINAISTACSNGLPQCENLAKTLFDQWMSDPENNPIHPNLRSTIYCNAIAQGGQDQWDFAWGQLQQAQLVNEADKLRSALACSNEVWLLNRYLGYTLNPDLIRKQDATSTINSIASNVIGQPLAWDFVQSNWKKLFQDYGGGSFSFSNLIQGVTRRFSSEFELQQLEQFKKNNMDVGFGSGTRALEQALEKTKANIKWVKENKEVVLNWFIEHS

[5] = molecular target: T5, Interstitial collagenase (Homo sapiens) (UniProt P03956); experiment: Inhibition of human recombinant MMP1 at 100 uM after 1 hr by fluorescence polarization based competition assay
T5 sequence (whole entry): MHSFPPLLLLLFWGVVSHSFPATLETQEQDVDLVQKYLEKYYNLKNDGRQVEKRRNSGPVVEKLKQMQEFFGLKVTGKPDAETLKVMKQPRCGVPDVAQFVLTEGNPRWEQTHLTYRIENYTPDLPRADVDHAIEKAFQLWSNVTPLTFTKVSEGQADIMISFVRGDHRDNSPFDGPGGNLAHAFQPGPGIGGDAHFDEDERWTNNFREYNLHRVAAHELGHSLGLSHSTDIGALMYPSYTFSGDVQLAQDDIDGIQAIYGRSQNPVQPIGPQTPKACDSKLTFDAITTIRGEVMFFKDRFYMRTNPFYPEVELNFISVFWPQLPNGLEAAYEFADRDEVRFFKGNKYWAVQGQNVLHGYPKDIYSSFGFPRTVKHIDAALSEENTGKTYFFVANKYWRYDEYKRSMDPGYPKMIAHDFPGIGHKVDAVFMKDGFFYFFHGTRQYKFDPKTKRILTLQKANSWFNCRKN

Jurkat = experiment: Cytotoxicity against human Jurkat cells; format: functional, cell-based
MOLT-3 = experiment: Cytotoxicity against human MOLT3 cells; format: functional, cell-based
[6] = Cytotoxicity against human ALL3 cells; format: functional, cell-based
[7] = Cytotoxicity against human CWR22 cells; format: functional, cell-based
[8] = Cytotoxicity against human Meso47 cells; format: functional, cell-based
[9] = molecular target: T2, Peptide deformylase, mitochondrial (Homo sapiens); experiment: Inhibition of human peptide deformylase at 10 uM after 1 hr by fluorescence polarization based competition assay
[10] = molecular target: T6, Peptide deformylase, mitochondrial (Homo sapiens, UniProt Q9HBH1); experiment: Inhibition of human peptide deformylase after 1 hr by fluorescence polarization based competition assay
T6 sequence (Q9HBH1 whole entry): T2 sequence (whole entry)

HL-60 [11] = experiment: Cytotoxicity against human HL60 cells; format: functional, cell-based
HL-60 [12] = experiment: Cytotoxicity against human vincristine-resistant HL60 cells; format: functional, cell-based
HEK293 = experiment: Cytotoxicity against human HEK293 cells; format: cell-based
Y79 = experiment: Cytotoxicity against human Y79 cells; format: functional, cell-based
Streptococcus pneumoniae = experiment: Antibacterial activity against Streptococcus pneumoniae ATCC 6301; format: functional
Enterobacter cloacae = experiment: Antibacterial activity against Enterobacter cloacae ATCC 13047; format: functional

| Structure (SMILES) | IC50 (Peptide deformylase) [µM] | inhibition [2] [%] | inhibition [3] [%] | inhibition [4] [%] | inhibition [5] [%] | IC50 (Jurkat) [µM] | IC50 (MOLT-3) [µM] | IC50 [6] [µM] | IC50 [7] [µM] | IC50 [8] [µM] | inhibition [9] [%] | IC50 (HEK293) [µM] | IC50 (Y79) [µM] | also measured |
| --- | --- | --- | --- | --- | --- | --- | --- | --- | --- | --- | --- | --- | --- | --- |
| O=C(O)c1cn(C2CC2)c2cc(N3CCNCC3)c(F)cc2c1=O [CIPROFLOXACIN] |  |  |  |  |  |  |  |  |  |  |  |  |  | MIC (Staphylococcus aureus): 0.5 µg/mL (≈ 1.51 µM); MIC [1]: ≤ 0.12 µg/mL; MIC (Streptococcus pyogenes): 0.25 µg/mL (≈ 0.754 µM); MIC (Enterococcus faecalis): 0.25 µg/mL (≈ 0.754 µM); MIC (Enterococcus faecium): 4 µg/mL (≈ 12.1 µM); MIC (Haemophilus influenzae): ≤ 0.12 µg/mL; MIC (Citrobacter freundii): ≤ 0.12 µg/mL; MIC (Escherichia coli): ≤ 0.12 µg/mL; MIC (Cutibacterium acnes): 0.25 µg/mL (≈ 0.754 µM); MIC (Bacteroides fragilis): 4 µg/mL (≈ 12.1 µM); MIC (Candida albicans): > 64 µg/mL |
| O=C1C=Cc2occ(C(=O)c3ccccc3)c2C1=O | > 100 | 100 | 32 | 5 | 0 | 8.1 | 7.3 | 22 | 30 | 63 |  |  |  |  |
| Cc1ccc(C(=O)c2coc3c2C(=O)C(=O)C(Br)=C3)cc1 |  |  |  |  |  |  |  |  |  |  | 81 |  |  |  |
| O=C1C(=O)c2c(C(=O)c3ccccc3)coc2C=C1Br |  |  |  |  |  |  |  |  |  |  | 97 |  |  |  |
| COc1ccc(C(=O)c2coc3c2C(=O)C(=O)C=C3)cc1 | > 100 | 100 | 24 | 4 | 6 | 8.9 | 9.1 | 29 | 35 | 100 |  | 21 | 31 | IC50 [10]: 34 µM; IC50 (HL-60 [11]): 17 µM; IC50 (HL-60 [12]): 27 µM |
| COc1ccc(C(=O)c2coc3c2C(=O)C(=O)C=C3Cl)cc1 | > 100 | 100 | 13 | 68 | 10 | 13 | 11 | 47 | 59 | 100 |  | 40 | 74 | IC50 [10]: 16 µM; IC50 (HL-60 [11]): 17 µM |
| CC(=O)C(C(C)=O)C1=C(Cl)C(=O)C(=O)c2c(C(=O)c3ccc(C)cc3)coc21 |  |  |  |  |  |  |  |  |  |  | 75 |  |  |  |
| O=C1C(=O)c2c(C(=O)c3ccccc3)coc2C(Cl)=C1Cl | > 100 | 100 | 65 | 101 | 41 |  | 31 | 69 | 72 | 100 | 90 | 100 | 100 | MIC (Staphylococcus aureus): > 64 µg/mL; MIC [1]: > 64 µg/mL; MIC (Streptococcus pyogenes): > 64 µg/mL; MIC (Enterococcus faecalis): > 64 µg/mL; MIC (Enterococcus faecium): > 64 µg/mL; MIC (Streptococcus pneumoniae): 4 µg/mL (≈ 12.5 µM); MIC (Haemophilus influenzae): > 64 µg/mL; MIC (Citrobacter freundii): > 64 µg/mL; MIC (Enterobacter cloacae): > 64 µg/mL; MIC (Escherichia coli): > 64 µg/mL; MIC (Cutibacterium acnes): > 64 µg/mL; MIC (Bacteroides fragilis): > 64 µg/mL; MIC (Candida albicans): > 64 µg/mL; IC50 (HL-60 [12]): 100 µM |

From ChEMBL document CHEMBL1806384, “Identification of benzofuran-4,5-diones as novel and selective non-hydroxamic acid, non-peptidomimetic based inhibitors of human peptide deformylase” (Bioorg Med Chem Lett, 2011)
